Assay results reported in patent publication US20260308158A1, “TARGETING RNAS ASSOCIATED WITH TAUOPATHIES WITH SMALL MOLECULES” (University of Florida Research Foundation, Incorporated, priority 2023, published 2026).

Key:
[1] = tested on: MAPT exon 10 splicing in primary neurons from htau mice; test: 4R/3R MAPT mRNA by RT-qPCR in primary neurons from htau mice; assay type: cell-based, human MAPT in htau transgenic mouse neurons; conditions: 48 h
Protocol: (§1) RNA Isolation and Real-Time Quantitative PCR (RT-qPCR). HeLa cells were treated as described in the Luciferase Reporter assay to Study Exon 10 Alternative Splicing. LAN5 cells were seeded in 12-well plates at 0.2×10^6 cells per well, treated with compound or ASO, and incubated for 48 h. Compound stocks prepared in DMSO and ASO stocks prepared in water were diluted in growth medium and added to cells. Total RNA was extracted from cells and analyzed via RT-qPCR to determine levels of 3R and 4R tau mRNA. In brief, the cells were washed with 1×DPBS and then lysed in the well using 300 μL of Lysis Buffer provided in a Quick-RNA MiniPrep kit (Zymo Research), which was used to extract total RNA per the manufacturer's protocol including the on-column DNase I digestion. The concentration of total RNA was measured by NanoDrop 2000 (Thermo Fisher Scientific). Only samples with OD260/OD280>1.8 were carried forward for analysis. Reverse transcription (RT) was carried out on 200 ng of total RNA using a qScript cDNA synthesis kit (QuantaBio) in a total volume of 10 μL according to the manufacturer's protocol. An Applied Biosystems QS5 384-well PCR system was used to complete qPCR reactions with Power SYBR Green Master Mix (Life Technologies), 600 nM each primer (Table S3), 20 ng of cDNA (1 μL of the RT reaction), in a total volume of 33 μL. Technical triplicates (10 μL each) were aliquoted into 384-well qPCR plates (Applied biosystems, 4483285). Subsequent qPCR analysis was performed using an Applied Biosystems QS5 384-well PCR system (software v.1.3.0). 4R/3R ratio were analyzed using ΔΔCt method using Equation 2: […]
Isolation and Treatment of Primary Neurons from Humanized tau (hTau) Transgenic Mice. All animal studies were completed as approved by the Scripps Florida Institutional Animal Care and Use Committee. […]

[2] = tested on: MAPT exon 10 splicing in htau mice; test: MAPT exon 10 splicing in brain of htau mice (RT-qPCR); assay type: in vivo, human MAPT in htau mouse; conditions: 100 mg/kg p.o. q.o.d., 20 days
Protocol: as §1
hTau Mice Studies. htau mice and WT mice (C57BL/6J) were purchased from Jackson Laboratories. htau mice were maintained in-house through breeding between htau+/− mice. Genotype was confirmed by PCR amplification as previously described.^18 Only homozygous mice were used in in vivo studies. Mice were randomly assigned to a treatment group, which were age- and gender-matched (n=X). […] During the treatment period, nesting activity was assessed, as describe in Nesting Activity below. […]

[3] = tested on: LAN5 transcriptome; test: RNA-seq transcriptome-wide selectivity in LAN5 cells; assay type: cell-based, human
Protocol: RNA-Seq. LAN5 cells in 12-well plate (~60% confluency) were treated with 2 (1.5 μM), 0.1% (v/v) DMSO (vehicle), 4R-to-3R tau ASO (0.5 μM), or scrambled ASO (0.5 μM) for 48 h. Total RNA was extracted using an RNeasy Mini Kit (Qiagen) per the manufacturer's protocol. Next, rRNA was depleted using NEBNext rRNA depletion modules (E6310L, New England Biosciences) and prepared with NEBNext Ultra II Dir RNA Lib Prep Kit (E7760S, New England Biosciences) according to the manufacturer's protocol. The prepared libraries were processed with NextSeq 500/550 High Output Kit v2.5 (Illumina, 20024907) per the manufacturer's protocol and then sequenced on a NextSeq 500. After sequencing, the BCL files were converted to FASTQ files using basemount/0.12.8.1516 and bcl2fastq/2.17.1.14.^33 The sequencing depth was over 82 million for each sample.
FastQC^34 and RSeQC^35 were used to determine the quality of reads and any overrepresentation of sequences. HISAT2^36 was used to map the reads to the reference human genome (hg19), and the output SAM files were converted to BAM files and sorted by index. Kallisto^37 and NCBI reference sequences (RefSeq)^38 were used for gene quantification to calculate transcripts per million (TPM). Differentially expressed genes were detected with Sleuth^39 and determined by a multiple test corrected p-value<0.05. Splicing event PSI values were quantitated using MISO.^40

With `COc1cc(N)ncc1CCCN(C)CCCn1cnc2c3ccccc3n(C)c2c1=O` [Compound 2, 3-(3-((3-(6-amino-4-methoxypyridin-3-yl)propyl)(methyl)amino)propyl)-5-methyl-3,5-dihydro-4H-pyrimido[5,4-b]indol-4-one] the “4R/3R ratio and PSI10” value [1] was “dose dependent reduction”, the “relative potency (4R/3R ratio and PSI10)” value [1] was “more potent than 1” and the “total human MAPT transcript levels” value ([2]; htau mice) was “without alteration of total human MAPT transcript levels”. The “reduction of 4R/3R ratio” value ([2]; htau mice brain) was 38±5%, the “reduction of PSI10” value ([2]; htau mice brain) was 12±2% and the “expression of MAPT gene” value ([3]; 2 at 1.5 μM or ASO 0.5 μM) was “Neither 2 nor the ASO altered the expression of MAPT gene”. For the same compound, the “alternative splicing of MAPT exons (exon 10)” value ([3]; 2 at 1.5 μM or tau ASO 0.5 μM) was “only one significantly reduced” and the “genes unchanged, percent” value ([3]; 2 at 1.5 μM, 48 h) was 99.73%.
